Reference: patent publication US20090286693A1, “MICROARRAYS OF TAGGED COMBINATORIAL TRIAZINE LIBRARIES” (New York University, NYU Medical Center, Department of …, priority 2001, published 2009)
Like-named read-outs stand apart in the source and are kept apart here.

Assays:
[1] = tested on: other fluorescently labeled proteins (unrelated to human IgG); experiment: Control microarray screening with unrelated fluorescently labeled proteins; settings: same slide screened with other fluorescently labeled proteins; no positive binding
human IgG [2] = target: T1, human IgG; experiment: SPR (Biacore X) competitive binding with protein A on CM-5 chip immobilized with human IgG, dissociation constants
T1 construct: Kd/M; other: SPR, small molecule premixed with protein A, IgG immobilized; averaged dissociation constant; other: protein A with IgG alone
Method: Dissociation constants were determined for each of the compounds selected using SPR on a Biacore X system with BiaEvaluation software. Competitive binding experiments were performed with differentially proportioned mixtures of a small molecule and protein A on a CM-5 chip immobilized with human IgG (see Supporting Information) (Table 1), which also ensures the small molecule binding to the same Scheme 2. General Experimental Scheme a (a) Directed immobilization of triazine libraries to generate a high-density microarray. (B) Incubation with a fluorescently labeled protein. (C) Removal of the unbound protein through washing. (D) Detection with instantaneous deconvolution of positive hits. (E) Assessing efficacy of hits using SPR. An averaged dissociation constant of 1.25×10−9 M was obtained for protein A with IgG alone. Further assessments made by passing 2.5 iM of a small molecule against the IgG surface were also performed to give measurable association levels that correlate with binding affinities (Table 1). Immobilizing the small molecules and applying IgG in the solution phase obtained equivalent binding measurements; however, by employing the competitive binding method described, a single chip surface may be used for screening against multiple potential small-molecule ligands, economizing the process. A φ2 value of <10 was obtained for all Kd measurements, denoting good statistical validity of the results obtained.
Surface Plasmon Resonance (SPR) Determination of Dissociation Constants. Maintenance. SPR measurements were made on a Biacore X system (Biacore AB, Uppsala, Sweden). Various maintenance steps were performed to ensure that the instrument was kept in good working conditions. The integrated flow cell was washed, sanitized, and maintained using standard cleansing reagents on a weekly basis. Calibration checks were performed quarterly to ensure that the signal was of good quality, and the instrument was kept separate from other equipments to prevent interference. When not in use, the system was docked with a spare chip and flushed with water at a low flow rate of 5 iL/min to prevent clogging. The system was primed at least twice before use or for the purpose of initiating a new buffer type. A desorb process was performed every 2 days during periods of active use to remove proteins or other contaminating compounds that may have accumulated within the flow cell.
Procedures. Various approaches were conceived to assess the Kd values of the interactions. One successful method immobilized the small molecule on the CM-5 sensor chips and ran them through varying concentrations of IgG. […] We conceived that it would be easier to immobilize IgG on the surface and apply differing proportioned mixtures of the “hit” small molecule and protein A (Amersham Biosciences, U.K.). […]

human IgG [3] = tested on: T2, human IgG; experiment: Small-molecule microarray screening with Cy3-labeled human IgG; assay type: binding; settings: for microarray hit strength in words: based on spot intensity; for array signal (fluorescence units): spot intensity, background subtracted
T2 construct: array signal (fluorescence units); other: spot intensity, background subtracted; human IgG-Cy3; array signal class; other: symbol in brackets after the fluorescence units; microarray hit strength in words; other: based on spot intensity, human IgG-Cy3; fused on or other part: Cy3 dye coupled through the NHS ester (chemical label, no fusion)
Description: Human IgG was fluorescently labeled with Cy3-NHS to allow for sensitive visualization of small molecule-IgG interactions on the array. […] The resulting scans were typical to that seen in FIG. 1. […] The spot intensities of these molecules are given in Table 1, with the background subtracted accordingly.
Preparation and Analysis of Small-Molecule Arrays. Preparation of Slides Activated with N-Hydroxysuccinimide Esters. 2 Briefly, 25 mm×75 mm slides (Fisher Scientific) were cleaned in piranha solution (sulfuric acid/hydrogen peroxide, 7:3). An amine functionality was incorporated onto the slides by silanization using a solution of 3% (aminopropyl)triethoxysilane in 2% water and 95% ethanol. After 1-2 h of soaking, the slides were washed with ethanol and cured at 150° C. for at least 2 h. Subsequently, the amine slides were incubated in a solution of 180 mM succinic anhydride in DMF for 30 min thereafter were transferred to a boiling water bath for 2 min. The slides were washed again in ethanol and dried under a stream of nitrogen. The carboxylic acid moieties now created on the slide surface were activated with a solution of 100 mM of TBTU (O-(benzotriazol-1-yl)-N,N,N,N-tetramethyluronium tetrafluoroborate), 200 mM DIEA, and 100 mM N-hydroxysuccinimide in DMF, thus generating the NHS-derivatized slides.
Microarray Printing. By individually weighing the solid compounds, triazine stock solutions were prepared to 2.5 mM in DMF, and 40-iL preparations were distributed across seven 384-well plates to give a total of 2688 distinct and pure compounds. Slides were spotted on an ESI SMA arrayer (Ontario, Canada) with the printhead installed with eight ArrayIt Chipmaker 7 Microspotting pins (Telechem, U.S.A.). Printing was performed in duplicate, and the pins were washed and sonicated in ethanol between samples. A repotting blotting process was also performed on plain slides to ensure spot uniformity. An additional solution of 0.2 mM Cy3-NH2 11 reference was spotted at the ends of the grids using a final eighth plate.
After spotting, the slides were allowed to sit for at least 12 h in situ and then were quenched by washing in an 1% ethanolamine (in DMF) bath for 2 h. After rinsing with Journal of Combinatorial Chemistry Discovery of Small-Molecule Ligands of Human IgG E ethanol and drying, the arrayed slides were stored in a desiccator at 4° C. The slides were stable for extended periods and, when required, were simply brought to room temperature.
Protein Screening with Labeled Human IgG. Proteins were tagged with Cy3-NHS by incubating 5 iL of 20 mM Cy3-NHS (Amersham Biosciences, U.K.) with 200 ig of human IgG (Calbiochem, U.S.A.) in a sodium bicarbonate buffer at pH 8. After 1 h of incubation, the labeled protein was separated from the free dye by a NAP-5 Sephadex G-50 column (Amersham Biosciences, U.K.). Before incubation with the labeled protein, the slides were preblocked to remove any nonspecific binding by soaking in 1% BSA in PBS for 1 h. After a brief rinsing with water, the slides were incubated with the labeled IgG.
A 1000-fold dilution of the above protein preparation was used as the incubation solution in a PBS buffer containing 1% BSA with the small-molecule arrays using the cover slip method for 30 min in a humid incubation chamber. Excess IgG was then removed by washing with distilled water. The background was further reduced using repeated washes with PBST.
Slide Scanning and Analysis. Slides were scanned on an ArrayWoRx scanner (Applied Precision, U.S.A.). Excel sheets were prepared to assign various compounds to specific numberings that could be readily tallied with reference numbers generated by the program. The ArrayWoRx software allows generation of reference files in which the spotting arrangement and the program overlay the spots on the results obtained, allowing compounds to be assigned in a rational fashion to every position. […]

[4] = SPR, small molecule premixed with protein A, IgG immobilized, read-out: Kd/M

Row | Compound | specificity of binding toward human IgG [1] | Kd (human IgG [2]; [4]) [µM] | microarray hit strength in words (human IgG [3]) | array signal (fluorescence units) (human IgG [3]) | Kd (human IgG [2]; protein A with IgG alone, read-out: averaged dissociation constant) [µM]
1 | NCCOCCOCCNC(=O)c1ccc(CNc2nc(NCC3CCCCC3)nc(NC3CC4CCC3C4)n2)cc1 (stereo not drawn) [AMD03] | highly specific | 2.02 | strongest hits | 185 | –
2 | NCCOCCOCCNC(=O)c1ccc(CNc2nc(NCC3CCCCC3)nc(NC3CCC3)n2)cc1 [AMD10] | highly specific | 4.35 | strongest hits | 179 | –
3 | COc1ccc(CNc2nc(Nc3ccc(CC(=O)NCCOCCOCCN)cc3)nc(N3CCCCC3)n2)cc1 [APF29] | – | 151 | negative | < 10 | –
4 | protein A: staphylococcal protein A (Amersham Biosciences), high molecular weight IgG ligand used as SPR competitor [reference compound] | – | – | – | – | 0.00125
